Residues, ends and D or L forms follow the SMILES beside them.
Legend:
brain tumor capillaries = conditions: intracarotid infusion of LTC4; cited from earlier work
RG-2 glioma [1] = assay: Microscopic analysis with intravenously injected horseradish peroxidase (HRP); assay type: in vivo, Wistar rats
Description: Microscopic analysis was performed using intravenously injected horseradish peroxidase (HRP) as described in (22). After rat preparation as previously described, bradykinin (10 μg/kg/min in saline) or saline as a control was injected into the fight carotid artery for 15 minutes. Five minutes after the start of the intracarotid infusion, 20 mg/100 g of horseradish peroxidase (HRP) was injected by an intravenous bolus. Ten minutes after the HRP injection, rats were perfused with a mixture of 2% glutaraldehyde and 2% formaldehyde in 0.1 sodium phosphate buffer solution at pH 7.4 through the heart. After fixation, the brains were removed and cut at 40 μm thickness on a vibratome. The sections were preincubated for 15 minutes at room temperature in the medium consisting of 10 ml 0.05 M-Tris-HCl buffer (pH 7.4), 3,3'-diaminobenzidine tetrahydrochloride and 0.02% hydrogen peroxide (Sigma). The sections were trimmed down to the areas of interests, post-fixed for 2 hours in 2% osmium tetroxide with 0.1M sodium phosphate, dehydrated, and embedded in plastic. Plastic sections 1 μm thick were observed under light microscopy.

[2] = rat, in vivo; cited from earlier work
[3] = tested on: brain capillary endothelial cells; conditions: nanomolar concentrations of bradykinin; cited from earlier work
RG-2 glioma [4] = assay: Regional permeability (unidirectional transfer constant Ki) by quantitative autoradiography after intracarotid infusion; assay type: in vivo, Wistar rats
Description: An experimental brain tumor model was made using female Wistar rats and RG-2 glioma cells. The RG-2 glioma cell line was maintained in a monolayer culture in F12 medium with 10% calf serum. Female Wistar rats, each weighing 150 to 250 gm were anesthetized with intra peritoneal pentobarbital (30 mg/kg). Glial tumors were implanted into the right hemisphere by intracerebral injections of 1×10^5 RG-2 glioma cells in five μl of 1.2% methyl cellulose (F12 medium). One week after tumor implantation, the rats were used for the brain tumor model.
The rats were divided into two groups: a bradykinin group treated with intracarotid infusion of 10 […] of bradykinin or the control group treated with intracarotid infusion of saline. The effect of intracarotid infusion of bradykinin was compared to saline infusions by statistical analysis of the Ki values using ANOVA and Students T-Tests.
(§1) [^14 C] AIB and [^14 C] dextran were used for quantitative autoradiographic examination of regional permeability. One week after tumor implantation, the rats were again anesthetized and a polyethylene (PE-10) catheter was inserted retrograde throughout the external carotid artery to the common carotid artery bifurcation ipsilateral to the tumor. The external carotid artery was then ligated. One femoral artery was cannulated to monitor systemic blood pressure and the other femoral artery was cannulated to withdraw arterial blood. Body temperature was maintained at […] and arterial blood gas levels, blood pressure, hematocrit were monitored. Animals with abnormal physiological parameters were eliminated. After rat preparation, bradykinin (10 μg/kg/min in saline) or saline as control was infused into the right carotid artery at a rate of 53.3 μ/min for 15 minutes. Five minutes after the start of the intracarotid infusion, 100 μCi/Kg of the tracer was injected as an intravenous bolus. A peristaltic withdrawal pump was used to withdraw femoral arterial blood at a constant rate of 0.083 ml/min immediately after injection of tracer for determination of serum radioactivity. Fifteen minutes after the start of intracarotid infusions, the animals were killed by decapitation and the brains were rapidly removed and frozen.
Autoradiography was conducted as follows: the frozen brains were mounted onto pedestals with M-1 embedding matrix, and 20 μm coronal sections were cut into a cryotome. The sections were thawmounted onto cover slips, and autoradiograms were generated by coexposing the sections on Kodak XAR-5 film with tissue-calibrated ^14 C standards for 2 weeks. The sequential section was stained with hematoxylin for correlation of areas of histologically verified tumor with autoradiograms. The regional radioactivities were measured in tumor, brain surrounding the tumor (BST; areas at around 2 mm distance from the border of the tumor), ipsilateral cortex to tumor (ipsi cortex), contralateral cortex (contra cortex), ipsilateral white matter (ipsi WM), contralateral WM (contra WM), ipsilateral basal ganglia (ipsi BGG), and contralateral BGG (contra BGG). Quantitative analysis of the regional radioactivity was performed using a computer (Macintosh II) with a scanner (UMAX UC630) and the software, Image 1.45 (NIH). […]
The frozen brains were mounted onto pedestals with M-1 embedding matrix, and 20 μm coronal sections were cut with a cryotome. The sections were thaw-mounted onto cover slips, and autoradiograms were generated by co-exposing the sections on Kodak XAR-5 film with tissue-calibrated ^14 C standards for 2 weeks. The sequential section was stained with hematoxylin for correlation of areas of histologically verified tumor with autoradiograms. The regional radioactivity was measured in tumor, brain surrounding the tumor (BST; areas within 2 mm distance from the border of the tumor), ipsilateral cortex to tumor, contralateral cortex, ipsilateral white matter (WM), contralateral WM, ipsilateral basal ganglia (BG), and contralateral BG. […]

normal brain capillary = conditions: in vivo; cited from earlier work
[5] = set-up: species or system rats; conditions: rat, in vivo
Description: At infusion rates greater than 20 μg/kg/min the systemic blood pressure in the rats was reduced.
as §1
One week after tumor implantation, the rats were again anesthetized and a polyethylene (PE-10) catheter was inserted retrograde through the external carotid artery to the common carotid artery bifurcation ipsilateral to the tumor. The external carotid artery was then ligated. […] Body temperature was maintained at 37° C. and arterial blood gases, blood pressure, and hematocrit were monitored. […]
RMP-7 infused at a rate greater than 1.0 μg/kg/min (dissolved in phosphate buffer, pH 7.4) reduced systemic blood pressure in rats when given either intravenously or into the carotid artery. […] Physiological parameters, which included arterial blood pH, PaO2, were also monitored.

RG-2 glioma [6] = assay: Evans blue (EB-albumin) staining of tumor and brain after intracarotid infusion; assay type: in vivo, Wistar rats; conditions: intracarotid bradykinin infusion; 2 ml/kg of 2% EB i.v.
Description: After the intracarotid bradykinin infusion, the rat was perfused with 200 ml of phosphate buffer through the heart to wash out the remaining EB from the vessels. The brains were removed immediately and cut as coronal sections.
Since EB binds to serum albumin (MW 67,000) in blood and distributes with albumin in vivo, EB staining in the tissue indicates the distribution of albumin (4). In order to observe the extravasated EB and not the EB remaining in the vessels in the brain, the blood from the brain was washed out by perfusing the rats with phosphate buffer from the heart.
Six rats were used to examine whether RMP-7 could selectively deliver albumin to tumors. Evans blue (EB) was injected intravenously instead of radiolabeled tracers. After the preparation of rats, 2 ml/kg of 2% EB was injected intravenously instead of radiolabeled tracers. After the intracarotid RMP-7 (n=3) or vehicle (n=3) infusion, the rat was perfused with 200 ml of phosphate buffer through the heart to wash out the remaining EB from the vessels. The brains were removed immediately and cut as coronal sections.

RG-2 glioma [7] = assay: Blood volume in brain and tumor by graphic method using [14C] dextran; assay type: in vivo, Wistar rats; conditions: intracarotid bradykinin infusion
Description: The blood volume for the quantitative examination of permeability was calculated with a graphic method using [^14 C] dextran (MW 70,000). The blood volume in normal brain tissue and tumors were 4.5 and 9.15 μ/g, respectively (FIG. 1). The slopes were the unidirectional transfer constants, the Ki values (μl/g/min), in the two groups. […] The tumor blood volume was almost twice that of the normal brain tissue, but the brain and tumor blood volumes were not altered by intracarotid bradykinin infusion.
RMP-7 (at 1.5 μg/kg) or vehicle (control) was infused into the right carotid artery at a volume rate of 0.8 ml over 15 minutes (i.e. 53 μ/min). In blood volume studies, 100 μCi/kg of [^14 C] dextran was injected as an intravenous bolus at either 5, 10, 14 or 14.5 minutes after the start of the intracarotid infusion to make the circulation time of dextran 10, 5, 1, 0.5 minutes, respectively. […] A peristaltic withdrawal pump was used to withdraw femoral arterial blood at a constant rate of 0.083 ml/min immediately after the injection of the tracer for the determination of serum radioactivity. […]
The blood volume for the quantitative examination of permeability was calculated with a graphic method using [^14 C] dextran. […] Ki was similar in these experiments whether calculated using the graphic method or the method described by Ohno (25) and Ziylan (26).

[8] = tumor, intracarotid bradykinin 10 μg/kg/min vs saline

Q: Which “Effect on capillary permeability” value (brain tumor capillaries) does the source give for `CCCCC/C=C\C\C=C/C=C/C=C/[C@@H](SC[C@H](NC(=O)CC[C@H](N)C(=O)O)C(=O)NCC(=O)O)[C@@H](O)CCCC(=O)O` [LTC4, leukotriene C4] here?
A: selectively increases the permeability in brain tumor capillaries without affecting the permeability in normal brain capillaries

Q: Which “HRP extravasation in normal brain” value (RG-2 glioma [1]; normal brain, bradykinin 10 μg/kg/min intracarotid) does the source give for `NC(N)=NCCC[C@H](NC(=O)[C@H](Cc1ccccc1)NC(=O)[C@@H]1CCCN1C(=O)[C@H](CO)NC(=O)[C@H](Cc1ccccc1)NC(=O)CNC(=O)[C@@H]1CCCN1C(=O)[C@@H]1CCCN1C(=O)[C@@H](N)CCCN=C(N)N)C(=O)O` [bradykinin] (H-RPPGFSPFR-OH) here?
A: no extravasation of HRP between cells

Q: And the “HRP stain in tumor” value (RG-2 glioma [1]; tumor, bradykinin 10 μg/kg/min intracarotid 15 min)?
A: well recognized in the extracellular space between tumor cells

Q: What about the “Degradation of bradykinin in rats, time” value [2] of the same compound?
A: several hours

Q: What about the “Stimulation of uptake of Lucifer yellow” value [3] of the same compound?
A: 40%

Q: What about the “Ki value of the brain surrounding tumor (BST) for [14C] AIB” value (RG-2 glioma [4]; BST, 2 mm from tumor border, intracarotid bradykinin 10 μg/kg/min) of the same compound?
A: 3.50 ± 1.29 µL/g/min

Q: What about the “Ki values of brain regions without tumor, treated vs control” value (RG-2 glioma [4]; normal brain regions, intracarotid bradykinin 10 μg/kg/min) of the same compound?
A: no significant differences

Q: And the “Ki value of the tumors for [14C] AIB (MW 103)” value (RG-2 glioma [4]; tumor, intracarotid bradykinin 10 μg/kg/min for 15 min)?
A: 25.91 ± 6.78 µL/g/min

Q: And the “Ki value of the tumors for [14C] dextran (MW 70,000)” value (RG-2 glioma [4]; tumor, intracarotid bradykinin 10 μg/kg/min for 15 min, mean±SD)?
A: 17.84 ± 1.00 µL/g/min

Q: What about the “Ki of tumors for [14C] AIB, fold higher than control group” value (RG-2 glioma [4]; [8]) of the same compound?
A: 1.8 fold

Q: And the “Ki of tumors for [14C] dextran, fold higher than control group” value (RG-2 glioma [4]; [8])?
A: 12 fold

Q: And the “HRP around normal brain capillary at high dose” value (normal brain capillary)?
A: caused intravasation of HRP around the normal brain capillary

Q: What about the “Effect on systemic blood pressure” value [5] of the same compound?
A: did not alter systemic blood pressure

Q: What about the “Infusion rate at which systemic blood pressure was reduced” value [5] of the same compound?
A: greater than 20 μg/kg/min

Q: And the Evans blue staining (RG-2 glioma [6])?
A: well recognized in the tumor but not in the normal brain

Q: And the “Brain and tumor blood volumes, change by infusion” value (RG-2 glioma [7])?
A: not altered

Q: Which “Systemic pressure when intravenous captopril infusion was used to enhance bradykinin effect” value ([5]; iv) does the source give for `C[C@H](CS)C(=O)N1CCC[C@H]1C(=O)O` [captopril] here?
A: hypotension occurred

Source: patent publication US5527778A, “Method for selective opening of abnormal brain tissue capillaries” (priority 1995, dated 1996)
